Laboratory results: patent publication US20250092065A1, “2-(INDAZOL-5-YL)-6-(PIPERIDIN-4-YL)-1,7-NAPHTHYRIDINE DERIVATIVES AND RELATED COMPOUNDS AS MODULATORS FOR SPLICING NUCLEIC ACIDS AND FOR THE TREATMENT OF PROLIFERATIVE DISEASES” (REMIX THERAPEUTICS INC., priority 2022, published 2025)
Like-named read-outs stand apart in the source and are kept apart here.

Tests used:
Type in all cases: cell-based, human
MYB mRNA = assay: RT-qPCR splicing assay, MYB mRNA canonical (CJ) and alternative (AJ) junction; conditions: Homo sapiens; for AC50: MYB alternative junction mRNA, read-out: MYB AJ (increase in AJ mRNA, AC50)
Summary of the method: (§1)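 A673 or K562 cells treated 24 h at 37 °C with 11-point 3-fold dilutions (top final 10 uM, DMSO ≤0.25%). Lysates analysed by one-step RT-qPCR for canonical (CJ) and alternative-exon (AJ) junctions, normalized to GAPDH, GUSB or PPIA. ΔΔCt vs DMSO, RQ = 2^(−ΔΔCt), expressed as percentage response.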

HTT mRNA = assay: RT-qPCR splicing assay, HTT mRNA canonical (CJ) and alternative (AJ) junction; conditions: Homo sapiens; for AC50: HTT alternative junction mRNA, read-out: HTT AJ (increase in AJ mRNA, AC50)
Summary of the method: as §1

MYB = assay: HiBiT protein abundance assay, MYB (K562 HiBiT knock-in); conditions: HiBiT knock-in K562 cells, 24 hours, top dose 10 μM
Summary of the method: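 K562 HiBiT knock-in, 24 h, 37 °C, top 10 μM final, 3-fold ×10, DMSO ≤0.25%. Lytic HiBiT luminescence; PC = parental K562, NC = DMSO; 4PL IC50.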

SMN2 mRNA = assay: RT-qPCR splicing assay, SMN2 mRNA; conditions: Homo sapiens, canonical junction qPCR panel, Table 4; read-out: SMN2 IC50 (decrease in CJ mRNA levels)
Summary of the method: as §1

[1] = MYB canonical junction mRNA, RT-qPCR, read-out: MYB CJ (decrease in CJ mRNA levels, IC50)
[2] = canonical junction qPCR panel, Table 4, read-out: MYB IC50 (decrease in CJ mRNA levels)
[3] = HTT canonical junction mRNA, RT-qPCR, read-out: HTT CJ (decrease in CJ mRNA levels, IC50)
[4] = canonical junction qPCR panel, Table 4, read-out: HTT IC50 (decrease in CJ mRNA levels)

IC50 (MYB mRNA; [1]) [nM] | IC50 (MYB mRNA; [2]) [nM] | IC50 (HTT mRNA; [3]) [nM] | IC50 (HTT mRNA; [4]) [nM] | IC50 (MYB) [nM] | IC50 (SMN2 mRNA) [nM] | Compound | AC50 (MYB mRNA; RT-qPCR) [nM] | AC50 (HTT mRNA; RT-qPCR) [nM]
< 100 | < 100 | < 100 | < 100 | < 100 | < 100 | C[C@H]1C[C@H](c2ccc3nc(-c4cc5cn(C)nc5c(F)c4O)ccc3n2)CCN1 (single isomer, unassigned) [Compound 356] | < 100 | < 100
< 100 | < 100 | < 100 | < 100 | < 100 | < 100 | Cc1c(O)c(-c2ccc3nc(N4CC[C@H](N[C@H]5C[C@H](F)C5)C4)ccc3n2)cc2cn(C)nc12 (single isomer, unassigned) [Compound 358] | < 100 | < 100
< 100 | < 100 | < 100 | < 100 | < 100 | < 100 | Cn1cc2cc(-c3ccc4nc(N5CC[C@@H](N)C5)ccc4n3)c(O)c(F)c2n1 (single isomer, unassigned) [Compound 362] | < 100 | < 100
< 100 | < 100 | 100 to 1000 | 100 to 1000 | < 100 | < 100 | CN[C@@H]1CCN(c2ccc3nc(-c4cc5cn(C)nc5c(C)c4O)ncc3n2)C1 (single isomer, unassigned) [Compound 368] | < 100 | 100 to 1000
100 to 1000 | 100 to 1000 | 100 to 1000 | 100 to 1000 | < 100 | < 100 | CN[C@H]1CCN(c2ccc3nc(-c4cc5cn(C)nc5c(C)c4O)ncc3n2)C1 (single isomer, unassigned) [Compound 369] | 100 to 1000 | 100 to 1000
< 100 | < 100 | < 100 | < 100 | < 100 | < 100 | Cc1nc2c(F)c(O)c(-c3ccc4nc(N5CC[C@H](NC6(CF)CC6)C5)ccc4n3)cc2o1 (single isomer, unassigned) [Compound 373] | < 100 | < 100
< 100 | < 100 | < 100 | < 100 | < 100 | < 100 | Cc1nc2c(C)c(O)c(-c3ccc4nc(N5CC[C@H](NC6(CF)CC6)C5)ccc4n3)cc2o1 (single isomer, unassigned) [Compound 378] | < 100 | < 100
100 to 1000 | 100 to 1000 | < 100 | < 100 | < 100 | < 100 | Cc1nc2c(C)c(O)c(-c3ccc4nc(N5CC[C@@H](NC6(CF)CC6)C5)ccc4n3)cc2o1 (single isomer, unassigned) [Compound 379] | 100 to 1000 | 100 to 1000
< 100 | < 100 | < 100 | < 100 | < 100 | < 100 | Cn1cc2cc(-c3ncc4nc(N5CC[C@@H](N)C5)ccc4n3)c(O)c(F)c2n1 (single isomer, unassigned) [Compound 380] | < 100 | 100 to 1000
< 100 | < 100 | < 100 | < 100 | < 100 | < 100 | C[C@H]1C[C@@H](c2ccc3nc(-c4cc5cn(C)nc5c(F)c4O)ccc3n2)CCN1 (single isomer, unassigned) [Compound 383] | < 100 | < 100
100 to 1000 | 100 to 1000 | > 10000 | > 10000 | 100 to 1000 | < 100 | Cn1cc2cc(-c3ccc4nc(C5CCNC[C@H]5O)ccc4n3)c(O)cc2n1 (single isomer, unassigned) [Compound 386] | 1000 to 10000 | > 10000
< 100 | < 100 | < 100 | < 100 | < 100 | < 100 | Cn1cc2cc(-c3ccc4nc(N5CC[C@@H](NC(C)(C)C)C5)ccc4n3)c(O)c(F)c2n1 (single isomer, unassigned) [Compound 391] | < 100 | < 100
< 100 | < 100 | < 100 | < 100 | < 100 | < 100 | Cn1cc2cc(-c3ccc4nc(N5CC[C@H](NC(C)(C)C)C5)ccc4n3)c(O)c(F)c2n1 (single isomer, unassigned) [Compound 392] | < 100 | < 100
1000 to 10000 | 1000 to 10000 | 1000 to 10000 | 1000 to 10000 | 100 to 1000 | < 100 | Cc1c(O)c(-c2ncc3nc([C@@H]4CCNC4)ccc3n2)cc2cn(C)nc12 (single isomer, unassigned) [Compound 398] | 1000 to 10000 | 1000 to 10000
< 100 | < 100 | < 100 | < 100 | 100 to 1000 | < 100 | Cc1nc2c(C)c(O)c(-c3ccc4nc(N5CC[C@@H](NC6CC6)C5)ncc4n3)cc2o1 (single isomer, unassigned) [Compound 432] | 100 to 1000 | < 100
100 to 1000 | 100 to 1000 | < 100 | < 100 | 100 to 1000 | < 100 | Cc1nc2cc(O)c(-c3ccc4nc(N5CC[C@@H](NC6CC6)C5)ncc4n3)cc2o1 (single isomer, unassigned) [Compound 434] | 100 to 1000 | < 100
100 to 1000 | 100 to 1000 | < 100 | < 100 | < 100 | < 100 | Cc1nc2c(C)c(O)c(-c3ccc4cc(N5CC[C@@H](NC(C)(C)C)C5)ncc4n3)cc2o1 (single isomer, unassigned) [Compound 444] | 100 to 1000 | 100 to 1000
1000 to 10000 | 1000 to 10000 | 1000 to 10000 | 1000 to 10000 | 100 to 1000 | 100 to 1000 | Cc1nc2c(C)c(O)c(-c3ccc4cc(N5CC[C@H](NC(C)(C)C)C5)ncc4n3)cc2o1 (single isomer, unassigned) [Compound 445] | 1000 to 10000 | 1000 to 10000
< 100 | < 100 | < 100 | < 100 | 100 to 1000 | < 100 | Cc1nc2cc(O)c(-c3ccc4nc(N5CC[C@@H](NC6(CF)CC6)C5)ccc4n3)cc2o1 (single isomer, unassigned) [Compound 488] | < 100 | < 100
< 100 | < 100 | < 100 | < 100 | < 100 | < 100 | Cc1nc2cc(O)c(-c3ccc4nc(N5CC[C@H](NC6(CF)CC6)C5)ccc4n3)cc2o1 (single isomer, unassigned) [Compound 489] | < 100 | < 100
< 100 | < 100 | < 100 | < 100 | < 100 | < 100 | Cc1nc2c(F)c(O)c(-c3ccc4nc(N5CC[C@@H](NC6(CF)CC6)C5)ccc4n3)cc2o1 (single isomer, unassigned) [Compound 491] | < 100 | < 100
< 100 | < 100 | < 100 | < 100 | < 100 | < 100 | Cn1cc2cc(-c3ccc4nc(N5CCC(NC6(CF)CC6)C5)ccc4n3)c(O)c(F)c2n1 (stereo in doubt) [Compound 353, 7-fluoro-5-{6-[(3R)-3-{[1-(fluoromethyl)cyclopropyl]amino}pyrrolidin-1-yl]-1,5-naphthyridin-2-yl}-2-methylindazol-6-ol] | < 100 | < 100
< 100 | < 100 | < 100 | < 100 | < 100 | < 100 | Cn1cc2cc(-c3ccc4nc(N5CCC(NC6(CF)CC6)C5)ccc4n3)c(O)c(F)c2n1 (stereo in doubt) [Compound 357, 7-fluoro-5-{6-[(3S)-3-{[1-(fluoromethyl)cyclopropyl]amino}pyrrolidin-1-yl]-1,5-naphthyridin-2-yl}-2-methylindazol-6-ol] | < 100 | < 100
< 100 | < 100 | < 100 | < 100 | < 100 | < 100 | Cn1cc2cc(-c3ccc4nc(N5CCC(N)C5)ccc4n3)c(O)c(F)c2n1 (stereo in doubt) [Compound 363, 5-{6-[(3R)-3-aminopyrrolidin-1-yl]-1,5-naphthyridin-2-yl}-7-fluoro-2-methylindazol-6-ol] | < 100 | < 100
